PMC9556824, “Design, synthesis and computational study of new benzofuran hybrids as dual PI3K/VEGFR2 inhibitors targeting cancer” (Scientific Reports, 2022)

Columns and labels:
[1] = test system: Hepatocellular carcinoma (HePG2); assay: Antitumor screening using MTT assay; format: cell-based, human; conditions: Homo sapiens
Excerpt: Hepatocellular carcinoma (HePG2), mammary gland breast cancer (MCF-7), epithelioid carcinoma cervix cancer (Hela), and human prostate cancer were included on the panel (PC3). […] The cell lines were obtained from the American Type Culture Collection (ATCC) through VACSERA, a Cairo-based holding firm for biological goods and vaccines.
The panel consisted of hepatocellular carcinoma (HePG2), mammary gland breast cancer (MCF-7), epithelioid carcinoma cervix cancer (Hela) and human prostate cancer (PC3). Human lung fibroblast (WI38) was used to assay the cytotoxicity effect on normal cell. The cell lines were obtained from ATCC via Holding company for biological products and vaccines (VACSERA), Cairo, Egypt. The cytotoxic activity was defined as the concentration of the compound that causes 50% growth inhibition compared with the growth of untreated cells.

[2] = test system: mammary gland breast cancer (MCF-7); assay: Antitumor screening using MTT assay; conditions: Homo sapiens
[3] = In vitro cytotoxicity against human normal cell line (MTT); format: cell-based; conditions: human, WI38, read-out: Average of Relative viability of cells (%)
Excerpt: (§1) The anticancer agent's selectivity for cancer cells is a critical consideration for any researcher, as it can decrease the molecule's adverse effects on normal human cells.

[4] = test system: human lung fibroblast (WI38); assay: as above; format: cell-based; conditions: Homo sapiens, WI-38, human normal cell line WI38; mean ± SD, n = 3
Excerpt: as §1

[5] = test system: epithelioid carcinoma cervix cancer (Hela); assay: Antitumor screening using MTT assay; conditions: Homo sapiens, HeLa
[6] = test system: HePG2, MCF-7, Hela, PC3 cell lines; assay: Antitumor screening using MTT assay, statements across several cell lines; format: cell-based, human; conditions: Homo sapiens; Hela and PC3; one range for 9 and 10 together; read-out: IC50 values range against Hela and PC3 cell line
[7] = test system: human prostate cancer (PC3); assay: Antitumor screening using MTT assay; conditions: Homo sapiens
MCF-7 = test system: MCF-7; design: method as in PMID 25086915; conditions: read-out: IC50 against MCF-7; cited from earlier work
Hela = test system: Hela; design: method as in PMID 25086915; conditions: read-out: IC50 against Hela; cited from earlier work
[8] = MCF7, read-out: Average of Relative viability of cells (%)
[9] = read-out: Average of Relative viability of cells (%)

`COc1ccccc1/C=N/N=C(\C)c1cc2ccccc2o1` [Compound 10, (E)-1-[1-(benzofuran-2-yl)ethylidene]-2-((E)-2-methoxybenzylidene)hydrazine] gave a viability at 1.56 µM ([1]; Conc. 1.56 µM, read-out: Average of Relative viability of cells (%)) of 100%, a viability at 3.125 µM ([1]; Conc. 3.125 µM, read-out: Average of Relative viability of cells (%)) of 100% and a viability at 6.25 µM ([1]; Conc. 6.25 µM, read-out: Average of Relative viability of cells (%)) of 91.9%. For the same compound, the viability at 12.5 µM ([1]; Conc. 12.5 µM, read-out: Average of Relative viability of cells (%)) was 72.7%, the viability at 25 µM ([1]; Conc. 25 µM, read-out: Average of Relative viability of cells (%)) was 63.1% and the viability at 50 µM ([1]; Conc. 50 µM, read-out: Average of Relative viability of cells (%)) was 50.2%. It also gave a viability at 100 µM ([1]; Conc. 100 µM, read-out: Average of Relative viability of cells (%)) of 38.1%, an IC50 ([1]; mean ± SD, n = 3, read-out: In-vitro cytotoxicity IC50 (µM) HePG2) of 51 ± 3 µM and a viability at 1.56 µM [2, 8] of 100%. It also gave a viability at 3.125 µM [2, 8] of 100%, a viability at 6.25 µM [2, 8] of 94.7% and a viability at 12.5 µM [2, 8] of 79.3%. It also gave a viability at 25 µM [2, 8] of 65.2%, a viability at 50 µM [2, 8] of 58% and a viability at 100 µM [2, 8] of 40.4%. For the same compound, the IC50 ([2]; MCF7, read-out: In-vitro cytotoxicity IC50 (µM) MCF-7) was 62.8 ± 3.3 µM, the viability at 3.125 µM ([3]; WI38 human lung fibroblast cells (normal cell line), Conc. 3.125 µM) was 100% and the viability at 1.56 µM ([3]; WI38 normal lung fibroblast cells, Conc. 1.56 µM) was 100%. The viability at 6.25 µM ([3]; WI38 normal lung fibroblast cells, Conc. 6.25 µM) was 100%, the viability at 12.5 µM ([3]; WI38 normal lung fibroblast cells, Conc. 12.5 µM) was 93.6% and the viability at 25 µM ([3]; WI38 normal lung fibroblast cells, Conc. 25 µM) was 71.7%. For the same compound, the viability at 50 µM ([3]; WI38 normal lung fibroblast cells, Conc. 50 µM) was 54.8%, the viability at 100 µM ([3]; WI38 normal lung fibroblast cells, Conc. 100 µM) was 43.3% and the IC50 [4] was 67.7 ± 3.4 µM. The viability at 1.56 µM [5, 9] was 100%, the viability at 3.125 µM [5, 9] was 85.9% and the viability at 6.25 µM [5, 9] was 63.5%. The viability at 12.5 µM [5, 9] was 48.1%, the viability at 25 µM [5, 9] was 33.7% and the viability at 50 µM [5, 9] was 25.8%. The viability at 100 µM [5, 9] was 17%, the IC50 ([5]; read-out: In-vitro cytotoxicity IC50 (µM) Hela) was 13.8 ± 1 µM and the melting point was 154 to 156 °C. For the same compound, the IC50 [6] was 13.8 to 32.1 µM, the viability at 1.56 µM [7, 9] was 100% and the viability at 3.125 µM [7, 9] was 96.3%. It also gave a viability at 6.25 µM [7, 9] of 78.2%, a viability at 12.5 µM [7, 9] of 59.1% and a viability at 25 µM [7, 9] of 46.8%. The viability at 50 µM [7, 9] was 37%, the viability at 100 µM [7, 9] was 23.5% and the IC50 ([7]; read-out: In-vitro cytotoxicity IC50 (µM) PC3) was 24.8 ± 1.9 µM.

For `O=C(CN1CCN(c2nn3c(-c4ccccc4)nnc3c3ccccc23)CC1)Nc1ccc(F)cc1` [Compound VII], the IC50 (MCF-7) is listed as 3.4 µM and the IC50 (Hela) is listed as 2 µM.
